According to patent US20190249218A1, “Method, Medium and Kit for Detecting Multiple Aminoglycoside Resistance Including 16S rRNA Methylase Mediated Resistance in Gram-Negative Bacteria” (priority 2016, published 2019):

Key:
Experiment in all cases: MIC by broth microdilution
E. coli = assay type: cell-based, Escherichia coli
Experimental: (§1) MICs of amikacin and gentamicin were determined using the broth microdilution method in cation-adjusted Mueller-Hinton broth, as recommended by the Clinical Laboratory Standard Institute (CLSI) guidelines (8). Amikacin and gentamicin sulfate (Fluorochem, Dertbyshire, UK) were tested over a range of dilutions from 0.25 to 256 μg/ml. A final inoculum of 5.10^5 CFU/ml of each strain was distributed in the 96 wells tray (Sarstedt, Ntimbrecht, Germany). All experiments were repeated in triplicate and E. coli ATCC 25922 was used as quality control. According to the CLSI breakpoints (9), Enterobacteriaceae isolates with gentamicin MICs≤4 and amikacin MICs≤16 mg/L were categorized as susceptible, while those with gentamicin MICs≥16 and amikacin MICs≥64 mg/L were categorized as resistant.
(§2) MICs of amikacin and gentamicin were determined as described above in Example 1.

K. pneumoniae = assay type: cell-based, Klebsiella pneumoniae
Experimental: as §1, §2

E. cloacae = assay type: cell-based, Enterobacter cloacae
Experimental: as §1, §2

P. stuartii = assay type: cell-based, Providencia stuartii
Experimental: as §1, §2

P. rettgeri = assay type: cell-based, Providencia rettgeri; settings: AAC(2′)
Experimental: as §1, §2

A. baumannii = assay type: cell-based, Acinetobacter baumannii
Experimental: as §1, §2

P. aeruginosa = assay type: cell-based, Pseudomonas aeruginosa
Experimental: as §1, §2

[1] = isolate 92/31, E. coli, AAC(3)-IV
[2] = isolate 1488, E. coli, AAC(6′)-II
[3] = isolate 4000, E. coli, APH(3′)-I + AAC(3)-V
[4] = isolate FR136, E. coli ATCC 25922, AG susceptible
[5] = isolate R1436, E. coli, AG susceptible
[6] = isolate R1438, E. coli, AG susceptible
[7] = isolate R2278, E. coli ATCC 35218, AG susceptible
[8] = isolate R4100, E. coli TOP10, npmA
[9] = isolate RP4, E. coli, APH(3′)-Ib
[10] = isolate pFCT1163, E. coli, AAC(6′)-Ia
[11] = isolate pFCT4392, E. coli, AAC(3)-Ia
[12] = isolate 1800, K. pneumoniae, AAC(6′)-I + AAC(3)-I
[13] = isolate 13000, K. pneumoniae, APH(3′)-I + AAC(3)-V
[14] = isolate 22233, K. pneumoniae, AAC(3)-V
[15] = isolate N34, K. pneumoniae, rmtC
[16] = isolate R108, K. pneumoniae, armA
[17] = isolate R347, K. pneumoniae, AG susceptible
[18] = isolate R500, K. pneumoniae, armA
[19] = isolate R502, K. pneumoniae, rmtF
[20] = isolate R2160, K. pneumoniae, rmtG
[21] = isolate R2257, K. pneumoniae, armA
[22] = isolate S155, K. pneumoniae, AG susceptible
[23] = isolate 1110, E. cloacae, ANT(2″)
[24] = isolate HM, E. cloacae, AG susceptible
[25] = isolate R713, E. cloacae, AG susceptible
[26] = isolate R1433, E. cloacae, AG susceptible
[27] = isolate R2258, E. cloacae, armA
[28] = isolate BM2667, P. stuartii, APH(3′)-VI + AAC(2′)
[29] = isolate R265, P. stuartii, rmtC

Gentamicin was tested, and the “Gentamicin Phenotype” value (E. coli; isolate 62Carb, E. coli, rmtB) was “R (gentamicin MICs≥16)”, the “Gentamicin Phenotype” value (E. coli; [1]) was “R (gentamicin MICs≥16)” and the MIC (E. coli; [1]) was 16 µg/mL. For the same substance, the “Gentamicin Phenotype” value (E. coli; isolate 97, E. coli, AAC(3)-IV) was “R (gentamicin MICs≥16)”, the MIC (E. coli; isolate 97, E. coli, AAC(3)-IV) was 32 µg/mL and the “Gentamicin Phenotype” value (E. coli; isolate 390, E. coli, AAC(3)-IV) was “R (gentamicin MICs≥16)”. The MIC (E. coli; isolate 1054 (first entry), E. coli, AAC(6′)-I) was 8 µg/mL, the MIC (E. coli; isolate 1054 (second entry), E. coli, AAC(6′)-I) was 8 µg/mL and the “Gentamicin Phenotype” value (E. coli; [2]) was “R (gentamicin MICs≥16)”. The MIC (E. coli; [2]) was 16 µg/mL, the “Gentamicin Phenotype” value (E. coli; [3]) was “R (gentamicin MICs≥16)” and the MIC (E. coli; [3]) was 64 µg/mL. For the same substance, the “Gentamicin Phenotype” value (E. coli; isolate 22089, E. coli, AAC(3)-I + AAC(3)-V) was “R (gentamicin MICs≥16)”, the “Gentamicin Phenotype” value (E. coli; isolate 122971, E. coli, ANT(2″)) was “R (gentamicin MICs≥16)” and the “Gentamicin Phenotype” value (E. coli; isolate E28, E. coli, rmtB) was “R (gentamicin MICs≥16)”. The “Gentamicin Phenotype” value (E. coli; [4]) was “S (gentamicin MICs≤4)”, the MIC (E. coli; [4]) was 0.5 µg/mL and the “Gentamicin Phenotype” value (E. coli; isolate R107, E. coli, rmtB) was “R (gentamicin MICs≥16)”. For the same substance, the “Gentamicin Phenotype” value (E. coli; isolate R262, E. coli, rmtC) was “R (gentamicin MICs≥16)”, the “Gentamicin Phenotype” value (E. coli; isolate R451, E. coli, rmtC) was “R (gentamicin MICs≥16)” and the “Gentamicin Phenotype” value (E. coli; isolate R989, E. coli, armA) was “R (gentamicin MICs≥16)”. For the same substance, the “Gentamicin Phenotype” value (E. coli; isolate R990, E. coli, rmtB) was “R (gentamicin MICs≥16)”, the “Gentamicin Phenotype” value (E. coli; isolate R1012, E. coli, armA) was “R (gentamicin MICs≥16)” and the “Gentamicin Phenotype” value (E. coli; [5]) was “S (gentamicin MICs≤4)”. The MIC (E. coli; [5]) was 1 µg/mL, the “Gentamicin Phenotype” value (E. coli; [6]) was “S (gentamicin MICs≤4)” and the MIC (E. coli; [6]) was 1 µg/mL. The “Gentamicin Phenotype” value (E. coli; [7]) was “S (gentamicin MICs≤4)”, the MIC (E. coli; [7]) was 1 µg/mL and the “Gentamicin Phenotype” value (E. coli; [8]) was “R (gentamicin MICs≥16)”. The MIC (E. coli; [8]) was 64 µg/mL, the “Gentamicin Phenotype” value (E. coli; [9]) was “S (gentamicin MICs≤4)” and the MIC (E. coli; [9]) was 1 µg/mL. For the same substance, the “Gentamicin Phenotype” value (E. coli; [10]) was “S (gentamicin MICs≤4)”, the MIC (E. coli; [10]) was 4 µg/mL and the “Gentamicin Phenotype” value (E. coli; [11]) was “R (gentamicin MICs≥16)”. For the same substance, the MIC (E. coli; [11]) was 32 µg/mL, the “Gentamicin Phenotype” value (E. coli; isolate pWP701, E. coli, AAC(3)-IV) was “R (gentamicin MICs≥16)” and the MIC (E. coli; strain 92/31, E. coli, AAC(3)-IV) was 16 µg/mL. For the same substance, the MIC (E. coli; strain 97, E. coli, AAC(3)-IV) was 32 µg/mL, the MIC (E. coli; strain 1054a, E. coli, AAC(6′)-I) was 8 µg/mL and the MIC (E. coli; strain 1054b, E. coli, AAC(6′)-I) was 8 µg/mL. For the same substance, the MIC (E. coli; strain 1488, E. coli, AAC(6′)-II) was 16 µg/mL, the MIC (E. coli; strain 4000, E. coli, APH(3′)-I + AAC(3)-V) was 64 µg/mL and the MIC (E. coli; strain R1436, E. coli, susceptible) was 1 µg/mL. For the same substance, the MIC (E. coli; strain R1438, E. coli, susceptible) was 1 µg/mL, the MIC (E. coli; strain R2278, E. coli ATCC 35218, susceptible) was 1 µg/mL and the MIC (E. coli; strain R2298, E. coli ATCC 25922, susceptible) was 1 µg/mL. For the same substance, the MIC (E. coli; strain R4100, E. coli, npmA) was 258 µg/mL, the MIC (E. coli; strain RP4, E. coli, APH(3′)-Ib) was 2 µg/mL and the MIC (E. coli; strain pFCT1163, E. coli, AAC(6′)-Ia) was 4 µg/mL. For the same substance, the MIC (E. coli; strain pFCT4392, E. coli, AAC(3)-Ia) was 32 µg/mL, the “Gentamicin Phenotype” value (K. pneumoniae; [12]) was “R (gentamicin MICs≥16)” and the MIC (K. pneumoniae; [12]) was 16 µg/mL. The “Gentamicin Phenotype” value (K. pneumoniae; [13]) was “R (gentamicin MICs≥16)”, the MIC (K. pneumoniae; [13]) was 128 µg/mL and the “Gentamicin Phenotype” value (K. pneumoniae; [14]) was “R (gentamicin MICs≥16)”. The MIC (K. pneumoniae; [14]) was 128 µg/mL, the “Gentamicin Phenotype” value (K. pneumoniae; [15]) was “R (gentamicin MICs≥16)” and the MIC (K. pneumoniae; [15]) was greater than 256 µg/mL. The “Gentamicin Phenotype” value (K. pneumoniae; [16]) was “R (gentamicin MICs≥16)”, the MIC (K. pneumoniae; [16]) was greater than 256 µg/mL and the “Gentamicin Phenotype” value (K. pneumoniae; [17]) was “S (gentamicin MICs≤4)”. The MIC (K. pneumoniae; [17]) was 0.5 µg/mL, the “Gentamicin Phenotype” value (K. pneumoniae; [18]) was “R (gentamicin MICs≥16)” and the MIC (K. pneumoniae; [18]) was greater than 256 µg/mL. For the same substance, the “Gentamicin Phenotype” value (K. pneumoniae; [19]) was “R (gentamicin MICs≥16)”, the MIC (K. pneumoniae; [19]) was greater than 256 µg/mL and the “Gentamicin Phenotype” value (K. pneumoniae; [20]) was “R (gentamicin MICs≥16)”. For the same substance, the MIC (K. pneumoniae; [20]) was greater than 256 µg/mL, the “Gentamicin Phenotype” value (K. pneumoniae; [21]) was “R (gentamicin MICs≥16)” and the MIC (K. pneumoniae; [21]) was greater than 256 µg/mL. For the same substance, the “Gentamicin Phenotype” value (K. pneumoniae; [22]) was “S (gentamicin MICs≤4)”, the MIC (K. pneumoniae; [22]) was 0.5 µg/mL and the MIC (K. pneumoniae; strain 1800, K. pneumoniae, AAC(6′)-I + AAC(3)-I) was 16 µg/mL. The MIC (K. pneumoniae; strain 13000, K. pneumoniae, APH(3′)-I + AAC(3)-V) was 128 µg/mL, the MIC (K. pneumoniae; strain 22233, K. pneumoniae, AAC(3)-V) was 128 µg/mL and the MIC (K. pneumoniae; strain N34, K. pneumoniae, rmtC) was greater than 256 µg/mL. It also gave an MIC (K. pneumoniae; strain R108, K. pneumoniae, armA) greater than 256 µg/mL, an MIC (K. pneumoniae; strain R347, K. pneumoniae, susceptible) of 0.5 µg/mL and an MIC (K. pneumoniae; strain R500, K. pneumoniae, armA) greater than 256 µg/mL. It also gave an MIC (K. pneumoniae; strain R502, K. pneumoniae, rmtF) greater than 256 µg/mL, an MIC (K. pneumoniae; strain R2160, K. pneumoniae, rmtG) greater than 256 µg/mL and an MIC (K. pneumoniae; strain R2257, K. pneumoniae, armA) greater than 256 µg/mL. For the same substance, the MIC (K. pneumoniae; strain S155, K. pneumoniae, susceptible) was 0.5 µg/mL, the “Gentamicin Phenotype” value (E. cloacae; [23]) was “R (gentamicin MICs≥16)” and the MIC (E. cloacae; [23]) was 32 µg/mL. For the same substance, the “Gentamicin Phenotype” value (E. cloacae; [24]) was “S (gentamicin MICs≤4)”, the MIC (E. cloacae; [24]) was 2 µg/mL and the “Gentamicin Phenotype” value (E. cloacae; [25]) was “S (gentamicin MICs≤4)”. The MIC (E. cloacae; [25]) was 0.5 µg/mL, the “Gentamicin Phenotype” value (E. cloacae; [26]) was “S (gentamicin MICs≤4)” and the MIC (E. cloacae; [26]) was 2 µg/mL. The “Gentamicin Phenotype” value (E. cloacae; [27]) was “R (gentamicin MICs≥16)”, the MIC (E. cloacae; [27]) was greater than 256 µg/mL and the MIC (E. cloacae; strain 1110, E. cloacae, ANT(2″)) was 32 µg/mL. For the same substance, the MIC (E. cloacae; strain HM, E. cloacae, susceptible) was 2 µg/mL, the MIC (E. cloacae; strain R713, E. cloacae, susceptible) was 0.5 µg/mL and the MIC (E. cloacae; strain R1433, E. cloacae, susceptible) was 2 µg/mL. For the same substance, the MIC (E. cloacae; strain R2258, E. cloacae, armA) was greater than 256 µg/mL, the “Gentamicin Phenotype” value (P. stuartii; [28]) was “S (gentamicin MICs≤4)” and the MIC (P. stuartii; [28]) was 8 µg/mL. For the same substance, the “Gentamicin Phenotype” value (P. stuartii; isolate R38, P. stuartii, rmtC) was “R (gentamicin MICs≥16)”, the MIC (P. stuartii; isolate R38, P. stuartii, rmtC) was greater than 256 µg/mL and the “Gentamicin Phenotype” value (P. stuartii; [29]) was “R (gentamicin MICs≥16)”. The MIC (P. stuartii; [29]) was greater than 256 µg/mL, the MIC (P. stuartii; strain BM2667, P. stuartii, APH(3′)-VI + AAC(2′)) was 16 µg/mL and the MIC (P. stuartii; strain R38, P. stuartii, rmtC) was greater than 256 µg/mL. For the same substance, the MIC (P. stuartii; strain R265, P. stuartii, rmtC) was greater than 256 µg/mL, the “Gentamicin Phenotype” value (P. rettgeri; isolate 531, P. rettgeri) was “S (gentamicin MICs≤4)” and the MIC (P. rettgeri; isolate 531, P. rettgeri) was 4 µg/mL. The MIC (P. rettgeri; strain 531, P. rettgeri) was 4 µg/mL, the MIC (A. baumannii; strain 4996, A. baumannii, AAC(6′)-I) was 4 µg/mL and the MIC (A. baumannii; strain 8541, A. baumannii, APH(3′)-VI) was 0.5 µg/mL. The MIC (A. baumannii; strain BM2580, A. baumannii, APH(3′)-VI) was 2 µg/mL, the MIC (A. baumannii; strain R264, A. baumannii, armA) was greater than 256 µg/mL and the MIC (A. baumannii; strain R1395, A. baumannii, susceptible) was 1 µg/mL. For the same substance, the MIC (P. aeruginosa; strain 3655, P. aeruginosa, APH(3′)-I + ANT(2″)) was 4 µg/mL, the MIC (P. aeruginosa; strain 3656, P. aeruginosa, APH(3′)-I + ANT(4′)-II) was 8 µg/mL and the MIC (P. aeruginosa; strain 3658, P. aeruginosa, APH(3′)-I + ANT(4′)-II) was 4 µg/mL. For the same substance, the MIC (P. aeruginosa; strain 28233, P. aeruginosa, APH(3′)-I + AAC(3)-I) was 1 µg/mL and the MIC (P. aeruginosa; strain R191, P. aeruginosa, susceptible) was 2 µg/mL.
